Data set [1] relates to HT-1376-derived tumor xenograft model. The data set can be described thus: Small animal PET/CT imaging. Also noted: species or system mice. As to conditions: mouse, in vivo. On the procedure: All animal experiments were performed following the protocols evaluated and approved by the Landesdirektion Sachsen, Referat 25 – Veterinärwesen, Lebensmittelüberwachung and Pharmazie (09105 Chemnitz, Germany, ethics approval number: 25-5131/562/52). HT-1376- and 5637-derived tumor xenograft models were established in NMRI nude mice (Rj: NMRI-Foxn1nu/nu, Charles River Laboratories, Sulzfeld, Germany) by subcutaneous injection of 5 × 10^6 cells in 100 μL of PBS containing 50% (v/v) Matrigel (Corning Life Sciences, Amsterdam, The Netherlands).
When the tumor volume reached 200 mm^3, PET experiments with radiotracers were performed. Radiolabeling of the ligands was performed as described previously with an apparent molar activity of 25 MBq/nmol. The radioligand stock solution (pH 6.5 – 7.5) was diluted in 0.9% NaCl, and 200 μL containing ∼9 MBq ([…]) was injected per mouse intravenously into a lateral tail vein. For blocking of target-specific radioligand binding, 75 nmol of blocking substance (1d) was administered simultaneously with the radioligand. Coincidences were recorded continuously in a 2 h PET-scan starting with the injection. Additionally, a CT scan was performed for anatomical referencing and attenuation correction. PET/CT imaging, reconstruction, and tissue delineation were carried out as described previously.

Data set [2] addresses T1, immobilized human nectin-4 (Homo sapiens, UniProt Q96NY8).
T1 construct: close to the value determined for the complete extracellular domain of nectin-4 (0.94 nM); purchased R&D Systems 2659-N4
T1 sequence (Q96NY8 32-349 limits assumed): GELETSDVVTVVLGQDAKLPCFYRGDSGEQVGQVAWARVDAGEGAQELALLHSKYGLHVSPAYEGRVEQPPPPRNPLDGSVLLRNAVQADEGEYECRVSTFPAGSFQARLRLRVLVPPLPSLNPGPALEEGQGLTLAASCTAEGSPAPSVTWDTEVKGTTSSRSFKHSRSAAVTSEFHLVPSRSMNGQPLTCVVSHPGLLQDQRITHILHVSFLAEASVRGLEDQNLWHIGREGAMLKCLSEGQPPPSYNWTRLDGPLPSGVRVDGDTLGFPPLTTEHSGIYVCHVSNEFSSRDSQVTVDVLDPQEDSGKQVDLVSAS
The data set can be described thus: SPR analysis of binding kinetics. The following applies: for kon / koff: ±SEM; for kon: read-out: k on (SPR, *10^6 M^–1 s^–1); for koff: read-out: k off (SPR, *10^–3 s^–1). On the technique in general: In SPR one partner is held on a chip, and binding of the other changes the refractive index at the surface.

The target of data set [3] is T2, recombinant human nectin-4 (Homo sapiens, UniProt Q96NY8).
T2 construct: close to the value determined for the complete extracellular domain of nectin-4 (0.94 nM); purchased R&D Systems 2659-N4
T2 sequence (Q96NY8 32-349 limits assumed): T1 sequence (Q96NY8 32-349 limits assumed)
The data set can be described thus: FA-based competitive binding assay with probe 1a. As to conditions: for Hill coefficient n: competitive binding curve, variable slope. On the procedure: For the competitive binding assay, a constant concentration of probe 1a (1 nM) and of nectin-4 (20 nM) was used, and the concentration of the competitors was varied over at least 3 orders of magnitude. […] Analysis of the curves by nonlinear regression according to dose–response inhibition with variable slope, as implemented in GraphPad Prism (see Experimental section), provided the IC50 value for displacing the probe from nectin-4.
All measurements were conducted at 37 °C over 1200 s (interval of 37 s) using a Cytation 5 multimode microplate reader (BioTek Instruments, Software Gen 5) and black 96-well microplates (BRANDplates with F-bottom wells). Experiments were conducted at an excitation wavelength of 540 nm and an emission wavelength of 620 nm. The FA (r) was calculated by Gen 5 software from the measured parallel and perpendicular fluorescence intensities (I ∥ and I ⊥, respectively) according to eq using a G factor of 0.87 (preset value). r=I∥−G×I⊥/I∥+2G×I⊥ 1
All further data analyses were conducted with GraphPad Prism (version 10.4.1, GraphPad Software, San Diego, CA, USA). The assay mixture (100 μL) contained an aqueous solution (99 μL) and DMSO (1%, v/v, 1 μL).
For the competitive binding assay, fixed concentrations of probe 1a (1 nM) and recombinant human nectin-4 (20 nM) and 10 concentrations of nonlabeled peptide (e.g., […] prepared as serial 1:1 dilution) were used (two separate experiments, each performed in duplicate). The corresponding stock solutions of 1a (2.5 nM) and nectin-4 (50 nM) were prepared in HEPES buffer, while the stock solutions of the nonlabeled peptides were prepared in 5% DMSO/HEPES buffer. nectin-4 (40 μL) and 1a (40 μL) were added to the wells, and the competition was started by the addition of the nonlabeled peptides (20 μL). The FA values were averaged over the time period of 1200 s, and plots of FA = f([peptide]) were analyzed by nonlinear regression according to the model “[inhibitor] vs. response – Variable slope (four parameters)” as implemented in GraphPad Prism. […] Therefore, the lower FA plateau was constrained to the FA value of probe 1a in the absence of nectin-4 and the competitor, which was recorded in each experiment.

Where two headings read alike, the source gives them in different places. Numbered stars: 1 amine (or outer) side, 2 acyl side, 3 side chain; on linkers, the order of the positions; unused ones are H or OH. Bridge positions count the residues as written; N and C are the ends. Square brackets hold non-standard residues; d marks the D form. Peptide text beside a SMILES is read from it. * marks the point of attachment. TATA = O=C(CC[*:1])N1CN(C(=O)CC[*:2])CN(C(=O)CC[*:3])C1; X1 = O=C(O)CN1CCN(CC(=O)O)CCN([C@H](CCC(=O)*)C(=O)O)CC1; 1Nal = N[C@@H](Cc1cccc2ccccc12)C(=O)O; Hyp = O=C(O)[C@@H]1C[C@@H](O)CN1; hArg = N=C(N)NCCCC[C@H](N)C(=O)O; hSer = N[C@@H](CCO)C(=O)O; Nle = CCCC[C@H](N)C(=O)O

For the compound `CSCC[C@@H]1NC(=O)[C@@H]2CSCCC(=O)N3CN(CN(C3)C(=O)CCSC[C@H](NC(=O)CC[C@H](C(=O)O)N3CCN(CC(=O)O)CCN(CC(=O)O)CC3)C(=O)N3CCC[C@H]3C(=O)N[C@@H](Cc3cccc4ccccc34)C(=O)N[C@H](CC(=O)O)C(=O)N2)C(=O)CCSC[C@@H](C(N)=O)NC(=O)[C@H](Cc2c[nH]c3ccccc23)NC(=O)[C@@H]2C[C@@H](O)CN2C(=O)[C@@H]2CCCN2C(=O)[C@H]([C@@H](C)O)NC(=O)[C@H](CO)NC(=O)[C@H](Cc2c[nH]c3ccccc23)NC(=O)[C@H](CC(=O)O)NC(=O)[C@H](CCCCNC(=N)N)NC1=O` [[^68Ga]Ga-1e] [metal not drawn], in data set [1], the “Blood half life fast” value turned out to be 1.51 ± 0.31 min, the “Blood half life slow” value worked out at 42.24 ± 4.20 min, the “Percent fast [%]” value is given as 80.73 ±3.35% and the “body retention at 2 h p.i.” value came out at 65%. Also, the “time of highest tumor uptake” value in data set [1] was 8.5 min.
On to `CSCC[C@@H]1NC(=O)[C@@H]2CSCCC(=O)N3CN(CN(C3)C(=O)CCSC[C@H](NC(=O)CC[C@H](C(=O)O)N3CCN(CC(=O)O)CCN(CC(=O)O)CC3)C(=O)N3CCC[C@H]3C(=O)N[C@@H](Cc3cccc4ccccc34)C(=O)N[C@H](CC(=O)O)C(=O)N2)C(=O)CCSC[C@@H](C(N)=O)NC(=O)[C@H](Cc2c[nH]c3ccccc23)NC(=O)[C@@H]2C[C@@H](O)CN2C(=O)[C@@H]2CCCN2C(=O)[C@H]([C@@H](C)O)NC(=O)[C@H](CO)NC(=O)[C@H](Cc2c[nH]c3ccccc23)NC(=O)[C@H](CC(=O)O)NC(=O)[C@H](CCCCNC(=N)N)NC1=O` [natGa-1e, metal not drawn], for which, in data set [2] (HBS-P+ pH 7.4, 25 °C), the kon stood at 1.1e+06 M⁻¹ s⁻¹. Moreover, the koff in data set [2] (pH 7.4, HBS-P+ pH 7.4, 25 °C) amounted to 0.0026 s⁻¹.
Regarding `COCC[C@@H]1NC(=O)[C@@H]2CSCCC(=O)N3CN(CN(C3)C(=O)CCSC[C@H](NC(=O)CC[C@H](C(=O)O)N3CCN(CC(=O)O)CCN(CC(=O)O)CC3)C(=O)N3CCC[C@H]3C(=O)N[C@@H](Cc3cccc4ccccc34)C(=O)N[C@H](CC(=O)O)C(=O)N2)C(=O)CCSC[C@@H](C(N)=O)NC(=O)[C@H](Cc2c[nH]c3ccccc23)NC(=O)[C@@H]2C[C@@H](O)CN2C(=O)[C@@H]2CCCN2C(=O)[C@H]([C@@H](C)O)NC(=O)[C@H](CO)NC(=O)[C@H](Cc2c[nH]c3ccccc23)NC(=O)[C@H](CC(=O)O)NC(=O)[C@H](CCCCNC(=N)N)NC1=O` [[^68Ga]Ga-4] [metal not drawn] (X1-CP[1Nal][dD]C[hSer](Me)[hArg]DWSTP[Hyp]WC-NH2; linker 1-5-15 via TATA), in data set [1], the “Percent fast [%]” value is listed as 78.47 ±3.76% and the “time of highest tumor uptake” value is listed as 8.5 min.
For the compound `CCCC[C@@H]1NC(=O)[C@@H]2CSCCC(=O)N3CN(CN(C3)C(=O)CCSC[C@H](NC(C)=O)C(=O)N3CCC[C@H]3C(=O)N[C@@H](Cc3cccc4ccccc34)C(=O)N[C@H](CC(=O)O)C(=O)N2)C(=O)CCSC[C@@H](C(N)=O)NC(=O)[C@H](Cc2c[nH]c3ccccc23)NC(=O)[C@@H]2C[C@@H](O)CN2C(=O)[C@@H]2CCCN2C(=O)[C@H]([C@@H](C)O)NC(=O)[C@H](CO)NC(=O)[C@H](Cc2c[nH]c3ccccc23)NC(=O)[C@H](CC(=O)O)NC(=O)[C@H](CCCCNC(=N)N)NC1=O` [3b] (Ac-CP[1Nal][dD]C[Nle][hArg]DWSTP[Hyp]WC-NH2; linker 1-5-15 via TATA), the Hill coefficient n in data set [3] is recorded as 1.80.
The same measure, in the same setting: as for `CSCC[C@@H]1NC(=O)[C@@H]2CSCCC(=O)N3CN(CN(C3)C(=O)CCSC[C@H](NC(C)=O)C(=O)N3CCC[C@H]3C(=O)N[C@@H](Cc3cccc4ccccc34)C(=O)N[C@H](CC(=O)O)C(=O)N2)C(=O)CCSC[C@@H](C(N)=O)NC(=O)[C@H](Cc2c[nH]c3ccccc23)NC(=O)[C@@H]2C[C@@H](O)CN2C(=O)[C@@H]2CCCN2C(=O)[C@H]([C@@H](C)O)NC(=O)[C@H](CO)NC(=O)[C@H](Cc2c[nH]c3ccccc23)NC(=O)[C@H](CC(=O)O)NC(=O)[C@H](CCCCNC(=N)N)NC1=O` [1d, reference compound], the figure is 2.37; as for `CSCC[C@@H]1NC(=O)[C@@H]2CSCCC(=O)N3CN(CN(C3)C(=O)CCSC[C@H](N)C(=O)N3CCC[C@H]3C(=O)N[C@@H](Cc3cccc4ccccc34)C(=O)N[C@H](CC(=O)O)C(=O)N2)C(=O)CCSC[C@@H](C(N)=O)NC(=O)[C@H](Cc2c[nH]c3ccccc23)NC(=O)[C@@H]2C[C@@H](O)CN2C(=O)[C@@H]2CCCN2C(=O)[C@H]([C@@H](C)O)NC(=O)[C@H](CO)NC(=O)[C@H](Cc2c[nH]c3ccccc23)NC(=O)[C@H](CC(=O)O)NC(=O)[C@H](CCCCNC(=N)N)NC1=O` [1c], 2.12.
`CSCC[C@@H]1NC(=O)[C@@H]2CSCCC(=O)N3CN(CN(C3)C(=O)CCSC[C@H](NC(=O)CC[C@H](C(=O)O)N3CCN(CC(=O)O)CCN(CC(=O)O)CC3)C(=O)N3CCC[C@H]3C(=O)N[C@@H](Cc3ccc4ccccc4c3)C(=O)N[C@H](CC(=O)O)C(=O)N2)C(=O)CCSC[C@@H](C(N)=O)NC(=O)[C@H](Cc2c[nH]c3ccccc23)NC(=O)[C@@H]2C[C@@H](O)CN2C(=O)[C@@H]2CCCN2C(=O)[C@H]([C@@H](C)O)NC(=O)[C@H](CO)NC(=O)[C@H](Cc2c[nH]c3ccccc23)NC(=O)[C@H](CC(=O)O)NC(=O)[C@H](CCCCNC(=N)N)NC1=O` [compound 9]: the Hill coefficient n in data set [3] is on record as 1.57. Besides, the kon in data set [2] (HBS-P+ pH 7.4, 25 °C) is 1.69e+07 M⁻¹ s⁻¹. The “fold increase in k off vs 1e” value in data set [2] (SPR) was 18 fold. For the same compound, the koff in data set [2] (pH 7.4, HBS-P+ pH 7.4, 25 °C) was 0.0765 s⁻¹.
`CCSC[C@@H]1NC(=O)[C@@H]2CSCCC(=O)N3CN(CN(C3)C(=O)CCSC[C@H](NC(=O)CC[C@H](C(=O)O)N3CCN(CC(=O)O)CCN(CC(=O)O)CC3)C(=O)N3CCC[C@H]3C(=O)N[C@@H](Cc3cccc4ccccc34)C(=O)N[C@H](CC(=O)O)C(=O)N2)C(=O)CCSC[C@@H](C(N)=O)NC(=O)[C@H](Cc2c[nH]c3ccccc23)NC(=O)[C@@H]2C[C@@H](O)CN2C(=O)[C@@H]2CCCN2C(=O)[C@H]([C@@H](C)O)NC(=O)[C@H](CO)NC(=O)[C@H](Cc2c[nH]c3ccccc23)NC(=O)[C@H](CC(=O)O)NC(=O)[C@H](CCCCNC(=N)N)NC1=O` [compound 7] (X1-CP[1Nal][dD]CC(Et)[hArg]DWSTP[Hyp]WC-NH2; linker 1-5-15 via TATA): the “fold lower binding affinity compared to 1e” value in data set [3] (FA K d ratio) was “approximately 10 fold”. The Hill coefficient n in data set [3] amounted to 1.93. For the same compound, in data set [2] (HBS-P+ pH 7.4, 25 °C), the koff stood at 0.0268 s⁻¹ and the kon was found to be 4.61e+06 M⁻¹ s⁻¹.

The values are drawn from paper PMC12557367, ““Precision on Two Wheels”–Structural Refinement of ^64Cu- and ^68Ga-Labeled Bicyclic Peptides Targeting Nectin‑4 for Improved Tumor Imaging: From Preclinical Development to First-in-Human Application” (Journal of Medicinal Chemistry, 2025).
